# According to patent US10336696B2, “Bicarbazole compound, photo-curable composition, cured product thereof, curable composition for plastic lens, and plastic lens” (DIC Corporation, priority 2014, dated 2019):
# Key:
# [1] = Refractive index of compounds (NMP solutions, extrapolated); assay type: physicochemical; settings: compound diluted with NMP, three concentrations, Abbe refractometer, 589 nm (D line)
# Description: The refractive index of each of the compounds was determined as follows. A compound was diluted with N-methylpyrrolidone (NMP) to prepare three samples having different concentrations. Liquid refractive indices of the respective solutions were measured, and the measured data was extrapolated to calculate the refractive index.
# Measuring device: Abbe refractometer NRA-2T, manufactured by Atago Co., Ltd.
# Measurement wavelength: 589 nm (D line)
# [2] = Solubility in o-phenylphenoxyethyl acrylate; assay type: physicochemical; set-up: key: A: Soluble; B: Insoluble; settings: for Solubility, 10 mass %: compound concentration 10% by mass; for Solubility, 50 mass %: compound concentration 50% by mass
# Description: The solubility was evaluated on the basis of whether a compound was soluble or insoluble in o-phenylphenoxyethyl acrylate. The evaluation was performed at two levels at which the compound concentration was 10% by mass and 50% by mass.
Structure (SMILES),Liquid refractive index [1],"Solubility, 10 mass % [2]","Solubility, 50 mass % [2]"
"C=Cn1c2ccccc2c2ccccc21 [Comparative Example 1, 9-vinylcarbazole, reference compound]",1.674,A,B
"c1ccc2c(c1)[nH]c1ccc(-c3ccc4[nH]c5ccccc5c4c3)cc12 [Comparative Example 2, 3,3′-bicarbazole, reference compound]",1.765,B,B
"C=CC(=O)n1c2ccccc2c2cc(-c3cccc4c5ccccc5n(C(=O)C=C)c34)ccc21 [Example 1, 9,9′-diacryloyl-1,3′-bicarbazole]",1.723,A,B
"C=Cn1c2ccccc2c2cc(-c3cccc4c5ccccc5n(C=C)c34)ccc21 [Example 2, 9,9′-divinyl-1,3′-bicarbazole]",1.735,A,A
"C=CC(=O)OCCn1c2ccccc2c2cc(-c3cccc4c5ccccc5n(CCOC(=O)C=C)c34)ccc21 [Example 3, 9,9′-bis(acryloyloxyethyl)-1,3′-bicarbazole]",1.664,A,A
"c1ccc2c(c1)[nH]c1ccc(-c3cccc4c3[nH]c3ccccc34)cc12 [Synthesis Example 1, 1,3′-bicarbazole]",1.76,A,B
